Laboratory results: patent publication EP1701622B1, “METHOD FOR WASHING CARCASS, MEAT, OR MEAT PRODUCTS WITH MEDIUM CHAIN PEROXYCARBOXYLIC ACID COMPOSITIONS” (ECOLAB INC., priority 2004, dated 2005)
Read-outs that look alike come from different tables or passages of the source.

Columns and labels:
Type in all cases: cell-based
Bacterial Spores = assay: Sporicidal test against conventional compositions (Table 22); settings: H2O2 35% pH 3.32, KK 2.0 wt-% (250 ppm POOA) pH 1.85, mixed peracid 1.5 wt-% (750 ppm peracid) pH 3.06, peroxyacetic 4.5 wt-% (2610 ppm POAA) pH 2.61
Experimental: (§1) Antimicrobial activity was determined according to two well established methods. The first method was the procedure set out in Germicidal and Detergent Sanitizing Action of Disinfectants, Official Methods of Analysis of the Association of Official Analytical Chemists, paragraph 960.09 and applicable sections, 15th Edition, 1990 (EPA Guideline 91-2). The second method was the procedure described in A.O.A.C. Use Dilution Methods, Official Methods of Analysis of the Association of Official Analytical Chemists, paragraph 955.14 and applicable sections, 15th Edition, 1990 (EPA Guideline 91-2). Briefly, antimicrobial activity of the present compositions was determined by exposing a one mL aliquot containing the target microorganism to 99 mL of the desired concentration of the test substance at the desired temperature. After the specified contact time, one mL of the test solution containing the microorganism was neutralized and enumerated for survivors.

E. coli = assay: Germicidal and detergent sanitizing action suspension test (AOAC 960.09); settings: Escherichia coli, 0.5 min; for log reduction at 5 ppm / log reduction at 10 ppm: 30 Second Exposure at Room Temperature; for log reduction at 20 ppm / log reduction at 40 ppm / log reduction at 60 ppm: 30 seconds
Experimental: as §1
(§2) Antimicrobial activity was determined as described above in Example 4.
(§3) Test 1 included 5 min exposure of the microbe to composition AB at room temperature. The microbes in test 1 included E. aerogenes ATCC 13048 and S. aureus ATCC 6538. Test 2 included 30 sec exposure of the microbe to composition AB at room temperature. The microbes in test 2 included S. aureus ATCC 6538, E. coli ATCC 11229, and P. aeruginosa ATCC 13442.

S. aureus = assay: as above; settings: Staphylococcus aureus, 0.5 min
Experimental: as §1, §2, §3

[1] = Soft water pH 3.91, Post Test pH 4.01

**Q.** What does the source list for OO [Composition H2O2, hydrogen peroxide]?
**A.** Log Reduction (Bacterial Spores; 40 °C, 30 sec): 1.19 log; Log Reduction (Bacterial Spores; 40 °C, 60 sec): 2.94 log; Log Reduction (Bacterial Spores; 40 °C, 120 sec): >6.30 log; Log Reduction (Bacterial Spores; 60 °C, 10 sec): 1.59 log; Log Reduction (Bacterial Spores; 60 °C, 20 sec): 4.85 log; Log Reduction (Bacterial Spores; 60 °C, 30 sec): 4.89 log; Log Reduction (Bacterial Spores; 80 °C, 10 sec): >6.30 log; Log Reduction (Bacterial Spores; 80 °C, 20 sec): >6.30 log; Log Reduction (Bacterial Spores; 80 °C, 30 sec): >6.30 log

**Q.** For CCCCCCCC(=O)OO [Pure POOA Crystals, peroxyoctanoic acid], which log reduction at 5 ppm (E. coli; Milli-Q water pH 4.04, Post Test pH 4.09) is on record?
**A.** 1.34

**Q.** What about the log reduction at 5 ppm (E. coli; Milli-Q water pH 5.00, Post Test pH 5.03) of the same compound?
**A.** 0.07

**Q.** And the log reduction at 5 ppm (E. coli; Milli-Q water pH 5.98, Post Test pH 5.89)?
**A.** 0.11

**Q.** And the log reduction at 5 ppm (E. coli; Milli-Q water pH 6.60, Post Test pH 6.24)?
**A.** 0.09

**Q.** What about the log reduction at 5 ppm (E. coli; [1]) of the same compound?
**A.** 1.26

**Q.** What about the log reduction at 5 ppm (E. coli; Soft water pH 5.08* (pH drift of ~0.7 pH units), Post Test pH 5.79) of the same compound?
**A.** 0.09

**Q.** What about the log reduction at 5 ppm (E. coli; Soft water pH 5.91* (pH drift of ~0.7 pH units), Post Test pH 6.68) of the same compound?
**A.** 0.08

**Q.** What about the log reduction at 5 ppm (E. coli; Soft water pH 9.29, Post Test pH 9.12) of the same compound?
**A.** 0.07

**Q.** And the log reduction at 10 ppm (E. coli; Milli-Q water pH 4.04, Post Test pH 4.08)?
**A.** 6.04

**Q.** And the log reduction at 10 ppm (E. coli; Milli-Q water pH 5.00, Post Test pH 4.98)?
**A.** 0.07

**Q.** What about the log reduction at 10 ppm (E. coli; Milli-Q water pH 5.98, Post Test pH 5.90) of the same compound?
**A.** 0.1

**Q.** And the log reduction at 10 ppm (E. coli; Milli-Q water pH 6.60, Post Test pH 5.80)?
**A.** 0.06

**Q.** And the log reduction at 10 ppm (E. coli; [1])?
**A.** 6.34

**Q.** And the log reduction at 10 ppm (E. coli; Soft water pH 5.08, Post Test pH 5.67)?
**A.** 0.55

**Q.** What about the log reduction at 10 ppm (E. coli; Soft water pH 5.91, Post Test pH 6.68) of the same compound?
**A.** 0.24

**Q.** What about the log reduction at 10 ppm (E. coli; Soft water pH 9.29, Post Test pH 9.09) of the same compound?
**A.** 0.07

**Q.** What about the log reduction at 20 ppm (E. coli; 20 ppm, 500 ppm Synthetic Hard Water, pH 7.77, pH 7.68) of the same compound?
**A.** 0.62

**Q.** And the log reduction at 40 ppm (E. coli; 40 ppm, 500 ppm Synthetic Hard Water, pH 7.77, pH 7.61)?
**A.** 0.93

**Q.** And the log reduction at 60 ppm (E. coli; 60 ppm, 500 ppm Synthetic Hard Water, pH 7.77, pH 7.54)?
**A.** 1.12

**Q.** What about the log reduction at 60 ppm (E. coli; pH 5.08, 60 ppm, Milli-Q water, pH 5.08) of the same compound?
**A.** 4.68

**Q.** And the log reduction at 40 ppm (E. coli; pH 5.28, 40 ppm, Milli-Q water, pH 5.28)?
**A.** 2.61

**Q.** And the log reduction at 20 ppm (E. coli; pH 5.58, 20 ppm, Milli-Q water, pH 5.58)?
**A.** 0.55

**Q.** And the log reduction at 5 ppm (S. aureus; 5 ppm, Milli-Q water pH 4.04, Post Test pH 4.09, 30 Second Exposure at Room Temperature, read-out: Log Reduction of S. aureus)?
**A.** 6.28

**Q.** What about the log reduction at 5 ppm (S. aureus; 5 ppm, Milli-Q water pH 5.00, Post Test pH 5.03, 30 Second Exposure at Room Temperature, read-out: Log Reduction of S. aureus) of the same compound?
**A.** 5.01

**Q.** And the log reduction at 5 ppm (S. aureus; 5 ppm, Milli-Q water pH 5.98, Post Test pH 5.89, 30 Second Exposure at Room Temperature, read-out: Log Reduction of S. aureus)?
**A.** 4.44

**Q.** What about the log reduction at 5 ppm (S. aureus; 5 ppm, Milli-Q water pH 6.60, Post Test pH 6.24, 30 Second Exposure at Room Temperature, read-out: Log Reduction of S. aureus) of the same compound?
**A.** 6.04

**Q.** And the log reduction at 5 ppm (S. aureus; 5 ppm, Soft water pH 3.91, Post Test pH 4.01, 30 Second Exposure at Room Temperature, read-out: Log Reduction of S. aureus)?
**A.** 5.82

**Q.** And the log reduction at 5 ppm (S. aureus; 5 ppm, Soft water pH 5.08* (pH drift of ~0.7 pH units), Post Test pH 5.79, 30 Second Exposure at Room Temperature, read-out: Log Reduction of S. aureus)?
**A.** 5.16

**Q.** What about the log reduction at 5 ppm (S. aureus; 5 ppm, Soft water pH 5.91* (pH drift of ~0.7 pH units), Post Test pH 6.68, 30 Second Exposure at Room Temperature, read-out: Log Reduction of S. aureus) of the same compound?
**A.** 4.19

**Q.** What about the log reduction at 5 ppm (S. aureus; 5 ppm, Soft water pH 9.29, Post Test pH 9.12, 30 Second Exposure at Room Temperature, read-out: Log Reduction of S. aureus) of the same compound?
**A.** 0.1

**Q.** What about the log reduction at 10 ppm (S. aureus; Milli-Q water pH 4.04, Post Test pH 4.08, 30 Second Exposure at Room Temperature) of the same compound?
**A.** > 6.82

**Q.** And the log reduction at 10 ppm (S. aureus; Milli-Q water pH 5.00, Post Test pH 4.98, 30 Second Exposure at Room Temperature)?
**A.** > 6.82

**Q.** And the log reduction at 10 ppm (S. aureus; Milli-Q water pH 5.98, Post Test pH 5.90, 30 Second Exposure at Room Temperature)?
**A.** 6.52

**Q.** What about the log reduction at 10 ppm (S. aureus; Milli-Q water pH 6.60, Post Test pH 5.80, 30 Second Exposure at Room Temperature) of the same compound?
**A.** > 6.82

**Q.** And the log reduction at 10 ppm (S. aureus; Soft water pH 3.91, Post Test pH 4.01, 30 Second Exposure at Room Temperature)?
**A.** 6.28

**Q.** And the log reduction at 10 ppm (S. aureus; Soft water pH 5.08, Post Test pH 5.67, 30 Second Exposure at Room Temperature)?
**A.** 6.12

**Q.** What about the log reduction at 10 ppm (S. aureus; Soft water pH 5.91, Post Test pH 6.68, 30 Second Exposure at Room Temperature) of the same compound?
**A.** > 6.82

**Q.** What about the log reduction at 10 ppm (S. aureus; Soft water pH 9.29, Post Test pH 9.09, 30 Second Exposure at Room Temperature) of the same compound?
**A.** 0.26

**Q.** What about the log reduction at 5 ppm (S. aureus; concentration of 5 ppm, pH of ~5, 30 sec, RT, read-out: log reductions of Staphylococcus aureus) of the same compound?
**A.** 5
